Reference: patent publication US8268848B2, “Cyclopropane compound” (Eisai R&D Management Co., Ltd., priority 2010, dated 2012)
pIC50: −log10 of the molar value. Like-named read-outs stand apart in the source and are kept apart here.

Columns and labels:
OX2 = molecular target: T1, OX2 (Homo sapiens, UniProt O43614); assay: Measurement of orexin receptor-binding ability ([125I]-OX-A, cell membranes, OX2); design: expressed in transfected cells; host or cells: CHO cells (membrane preparation); conditions: membranes of recombinant CHO cells expressing OX2, 0.2 nM [125I]-OX-A; for IC50: OX2 (IC50) nM; for pIC50: read-out: OX2 (IC50)
T1 sequence (O43614 1-444): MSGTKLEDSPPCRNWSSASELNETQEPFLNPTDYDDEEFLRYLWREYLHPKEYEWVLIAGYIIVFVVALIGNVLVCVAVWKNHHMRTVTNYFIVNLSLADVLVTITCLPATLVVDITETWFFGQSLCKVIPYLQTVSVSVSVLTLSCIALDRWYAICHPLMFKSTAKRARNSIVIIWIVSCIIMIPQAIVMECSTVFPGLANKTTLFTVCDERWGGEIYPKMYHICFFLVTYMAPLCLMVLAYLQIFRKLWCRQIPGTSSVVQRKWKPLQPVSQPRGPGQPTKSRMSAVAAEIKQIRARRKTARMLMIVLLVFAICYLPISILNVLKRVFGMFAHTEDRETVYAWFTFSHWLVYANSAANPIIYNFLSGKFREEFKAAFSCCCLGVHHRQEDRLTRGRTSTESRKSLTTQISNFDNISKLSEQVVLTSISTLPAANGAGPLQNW

OX1 = molecular target: T2, OX1 (Homo sapiens, UniProt O43613); assay: Measurement of orexin receptor-binding ability ([125I]-OX-A, cell membranes, OX1); design: expressed in transfected cells; host or cells: CHO cells (membrane preparation)
T2 sequence (O43613 1-425): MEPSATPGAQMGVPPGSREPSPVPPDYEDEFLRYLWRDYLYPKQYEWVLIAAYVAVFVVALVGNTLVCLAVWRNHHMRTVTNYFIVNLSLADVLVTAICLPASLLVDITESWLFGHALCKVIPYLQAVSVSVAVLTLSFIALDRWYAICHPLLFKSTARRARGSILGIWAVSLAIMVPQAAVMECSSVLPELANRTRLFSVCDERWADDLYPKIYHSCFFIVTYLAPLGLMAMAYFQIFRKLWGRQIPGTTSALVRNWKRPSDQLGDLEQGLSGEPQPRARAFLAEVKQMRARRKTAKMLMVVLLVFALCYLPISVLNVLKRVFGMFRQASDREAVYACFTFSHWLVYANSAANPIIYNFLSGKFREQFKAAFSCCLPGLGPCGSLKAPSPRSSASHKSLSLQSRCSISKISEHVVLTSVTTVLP

[1] = membranes of recombinant CHO cells expressing OX1, 0.2 nM [125I]-OX-A, read-out: OX1 (IC50)

| SMILES | IC50 (OX2) | pIC50 (OX1) | pIC50 (OX2) | pIC50 (OX1; [1]) |
| --- | --- | --- | --- | --- |
| Cc1ncc(OCC2(c3cccc(F)c3F)CC2C(=O)Nc2ccc(F)cn2)c(C)n1 (stereo not drawn) [Example 162, 2-(2,3-difluorophenyl)-2-{[(2,4-dimethylpyrimidin-5-yl)oxy]methyl}-N-(5-fluoropyridin-2-yl)cyclopropanecarboxamide] | 13 nM | 7.19 | – | – |
| COc1cccc([C@]2(COc3cnc(C)nc3C)C[C@H]2C(=O)Nc2cc(C)c(F)cn2)c1 [Example 189, (1R,2S)-2-{[(2,4-dimethylpyrimidin-5-yl)oxy]methyl}-N-(5-fluoro-4-methylpyridin-2-yl)-2-(3-methoxyphenyl)cyclopropanecarboxamide] | – | – | 8.39 | 8.15 |
| Cc1ncc(OC[C@@]2(c3cccc(F)c3)C[C@H]2c2nc3ccccc3c(=O)[nH]2)c(C)n1 [Example 310] | – | – | 7.89 | 7.40 |
| CCc1nc(C)ncc1OC[C@@]1(c2ccccc2)C[C@H]1C(=O)Nc1cncc(OC)c1 [Example 317] | – | – | 7.70 | 6.35 |
| Cc1ncc(OC[C@@]2(c3ccc(Br)cc3)C[C@H]2C(=O)Nc2ccc(F)cn2)c(C)n1 [Example 274] | 19 nM | 7.23 | – | – |
| COCc1cc(NC(=O)[C@@H]2C[C@@]2(COc2cnc(C)nc2C)c2cccc(F)c2)ncc1F [Example 86, (1R,2S)-2-{[(2,4-dimethylpyrimidin-5-yl)oxy]methyl}-N-(5-fluoro-4-methoxymethylpyridin-2-yl)-2-(3-fluorophenyl)cyclopropanecarboxamide] | 6.1 nM | 8.20 | – | – |
| Cc1ncc(OC[C@@]2(c3ccccc3)C[C@H]2C(=O)Nc2cc(Cl)cc(C#N)c2)c(C)n1 [Example 35] | – | – | 7.37 | 6.25 |
| COCc1nc(C)ncc1OC[C@@]1(c2cc(F)cc(OC)c2)C[C@H]1C(=O)Nc1ccc(F)c(F)c1 [Example 232, (1R,2S)-N-(3,4-difluorophenyl)-2-(3-fluoro-5-methoxyphenyl)-2-{[(4-methoxymethyl-2-methylpyrimidin-5-yl)oxy]methyl}cyclopropanecarboxamide] | – | – | 8.52 | 9.00 |
| Cc1ncc(OC[C@@]2(c3cccc(F)c3)C[C@H]2C(=O)Nc2ncc(F)cc2O)c(C)n1 [Example 319, (1R,2S)-2-{{[(2,4-dimethylpyrimidin-5-yl)oxy]methyl}}-N-(5-fluoro-3-hydroxypyridin-2-yl)-2-(3-fluorophenyl)cyclopropanecarboxamide] | 128 nM | < 6.70 | – | – |
| Cc1ncc(NC[C@@]2(c3cccc(F)c3)C[C@H]2C(=O)Nc2ccc(F)cn2)c(C(F)(F)F)n1 [Example 302, (1R,2S)-2-(3-fluorophenyl)-N-(5-fluoropyridin-2-yl)-2-[N-(2-methyl-4-trifluoromethylpyrimidin-5-yl)aminomethyl]cyclopropanecarboxamide] | – | – | 8.52 | 8.10 |
| Cc1ncc(OC[C@@]2(c3ccc(O)c(F)c3)C[C@H]2C(=O)Nc2ccc(F)cn2)c(C)n1 [Example 321, (1R,2S)-2-{[(2,4-dimethylpyrimidin-5-yl)oxy]methyl}-2-(3-fluoro-4-hydroxyphenyl)-N-(5-fluoropyridin-2-yl)cyclopropanecarboxamide] | 7 nM | 7.70 | – | – |
| Cc1ncc(OC[C@@]2(c3cc(F)cc(F)c3)C[C@H]2C(=O)Nc2ccc(F)c(F)c2)c(C)n1 [Example 134, (1R,2S)-N-(3,4-difluorophenyl)-2-(3,5-difluorophenyl)-2-{[(2,4-dimethylpyrimidin-5-yl)oxy]methyl}cyclopropanecarboxamide] | – | – | 8.40 | > 8.70 |
| COc1cccc(C2(COc3cnc(C)nc3C)CC2C(=O)Nc2ccc(Cl)cn2)c1 (stereo not drawn) [Example 185] | 7 nM | 7.62 | – | – |
| Cc1ncc(N(C)C[C@@]2(c3ccccc3)C[C@H]2C(=O)Nc2cc(C)c(F)cn2)c(C)n1 [Example 299] | – | – | 7.34 | 6.52 |
| COCc1cc(NC(=O)[C@@H]2C[C@@]2(COc2cnc(C)nc2C)c2ccccc2)ncc1F [Example 71, (1R,2S)-2-{[(2,4-dimethylpyrimidin-5-yl)oxy]methyl}-N-[5-fluoro-4-(methoxymethyl)pyridin-2-yl]-2-phenylcyclopropanecarboxamide] | – | – | 8.29 | 7.28 |
| Cc1ncc(OC[C@@]2(c3cccc(F)c3)C[C@H]2C(=O)Nc2ccc(F)cn2)c(CF)n1 [Example 320, (1R,2S)-2-{[(4-fluoromethyl-2-methylpyrimidin-5-yl)oxy]methyl}-2-(3-fluorophenyl)-N-(5-fluoropyridin-2-yl)cyclopropanecarboxamide] | 2.3 nM | 7.91 | – | – |
| COCc1nc(C)ncc1OC[C@@]1(c2cccc(F)c2)C[C@H]1C(=O)Nc1ccccn1 [Example 193, (1R,2S)-2-(3-fluorophenyl)-2-{[(4-methoxymethyl-2-methylpyrimidin-5-yl)oxy]methyl}-N-(pyridin-2-yl)cyclopropanecarboxamide] | 8 nM | 7.44 | – | – |

| SMILES | IC50 (OX2) | pIC50 (OX1) | pIC50 (OX2) | pIC50 (OX1; [1]) |
| --- | --- | --- | --- | --- |
| COCc1nc(C)ncc1OC[C@@]1(c2cccc(F)c2)C[C@H]1C(=O)Nc1cccc(F)c1 [Example 195, (1R,2S)-N,2-bis(3-fluorophenyl)-2-{[(4-methoxymethyl-2-methylpyrimidin-5-yl)oxy]methyl}cyclopropanecarboxamide] | – | – | 8.52 | 8.22 |
| Cc1ncc(OCC2(c3ccccc3C)CC2C(=O)Nc2ccc(F)cn2)c(C)n1 (stereo not drawn) [Example 179] | 29 nM | 6.78 | – | – |
| COCc1nc(C)ncc1OC[C@@]1(c2ccc(F)cc2)C[C@H]1C(=O)Nc1ccc(F)c(F)c1 [Example 207, (1R,2S)-N-(3,4-difluorophenyl)-2-(4-fluorophenyl)-2-{[(4-methoxymethyl-2-methylpyrimidin-5-yl)oxy]methyl}cyclopropanecarboxamide] | – | – | 8.05 | 6.96 |
| Cc1ncc(OC[C@@]2(c3ccsc3)C[C@H]2C(=O)Nc2ccc(Cl)cn2)c(C)n1 [Example 269] | – | – | 7.64 | 6.58 |
| COCc1nc(C)ncc1OC[C@@]1(c2cc(F)cc(F)c2)C[C@H]1C(=O)Nc1ccc(F)c(F)c1 [Example 221, (1R,2S)-N-(3,4-difluorophenyl)-2-(3,5-difluorophenyl)-2-{[(4-methoxymethyl-2-methylpyrimidin-5-yl)oxy]methyl}cyclopropanecarboxamide] | – | – | 8.52 | > 8.70 |
| COCc1nc(C)ncc1OC[C@@]1(c2ccccc2)C[C@H]1C(=O)Nc1ccc(C#N)cn1 [Example 140, (1R,2S)-N-(5-cyanopyridin-2-yl)-2-{[(4-(methoxymethyl)-2-methylpyrimidin-5-yl)oxy]methyl}-2-phenylcyclopropanecarboxamide] | – | – | 8.05 | 7.36 |
| Cc1ncc(OC[C@@]2(c3ccccc3)C[C@H]2C(=O)Nc2cnc(Br)c(C)c2)c(C)n1 [Example 58] | – | – | 7.05 | 5.71 |
| Cc1ncc(OC[C@@]2(c3ccccc3)C[C@H]2C(=O)Nc2cc3ccccc3cn2)c(C)n1 [Example 52] | – | – | 7.55 | 7.43 |
| Cc1ncc(OC[C@@]2(c3ccccc3)C[C@H]2C(=O)Nc2ccccc2F)c(C)n1 [Example 78] | 94 nM | 6.18 | – | – |
| CCc1ncc(OC[C@@]2(c3ccccc3)C[C@H]2C(=O)Nc2ccc(F)cn2)c(C)n1 [Example 313] | 107 nM | 6.65 | – | – |
| Cc1ncc(N(C)C[C@@]2(c3ccccc3)C[C@H]2C(=O)Nc2cc(C)c(Cl)cn2)c(C)n1 [Example 301] | – | – | 7.55 | 6.76 |
| Cc1ncc(OCC2(c3ccccc3Cl)CC2C(=O)Nc2ccc(C#N)cn2)c(C)n1 (stereo not drawn) [Example 153] | 32 nM | 6.35 | – | – |
| Cc1ncc(OC[C@@]2(c3ccccc3)C[C@H]2C(=O)Nc2cc(C(F)(F)F)ccn2)c(C)n1 [Example 10] | – | – | 7.51 | 6.64 |
| Cc1ncc(N(C)C[C@@]2(c3ccccc3)C[C@H]2C(=O)Nc2ccc(F)cc2)c(C)n1 [Example 300] | – | – | 7.47 | 6.31 |
| Cc1ncc(OC[C@@]2(c3cccc(I)c3)C[C@H]2C(=O)Nc2ccc(F)cn2)c(C)n1 [Example 283, (1R,2S)-2-{[(2,4-dimethylpyrimidin-5-yl)oxy]methyl}-N-(5-fluoropyridin-2-yl)-2-(3-iodophenyl)cyclopropanecarboxamide] | 9 nM | 6.76 | – | – |
| COc1cncc(NC(=O)[C@@H]2C[C@@]2(COc2cnc(C)nc2C)c2ccc(F)cc2)c1 [Example 112] | – | – | 7.74 | 5.99 |
